Consider one compound from publication PMC8697381 (ACS Omega, 2021).

SMILES strings stand for the structures. Where a SMILES comes first, the peptide text is derived from it.

In this assay the test system is A431 human skin squamous cell carcinoma cells. The assay is described as follows: In vitro cellular uptake quantified by flow cytometry. Format: cell-based. Conditions: all concentrations (0.2–25 μM), 90 min, ratio of Cf-positive cells and mean fluorescence intensity.

Consider `N=C(N)NCCC[C@H](NC(=O)[C@@H]1CCCN1C(=O)[C@H](CCC(N)=O)NC(=O)[C@H](CCCCN)NC(=O)[C@H](CC(=O)O)NC(=O)[C@@H]1CCCN1C(=O)[C@H](Cc1ccccc1)NC(=O)CNC(=O)[C@H](CCC(=O)O)NC(=O)[C@H](Cc1ccccc1)NC(=O)[C@@H](N)Cc1ccccc1)C(=O)N[C@@H](CCCCN)C(=O)N[C@@H](CCCCN)C(N)=O` [Peptide S100] (H-FFEGFPDKQPRKK-NH2), for which the “cellular uptake rate, comparison between peptides” value is recorded as “lowest cellular uptake rate”.
